Results as given in US20130029928A1 (priority 2010, published 2013).
Read-outs that look alike come from different tables or passages of the source.

Test: Phase I study CXR1002-001: plasma pharmacokinetics (LC-MS/MS)
Type: in vivo, human
Settings: human, plasma, oral, person, plasma, read-out: Concentration; for concentration at 192 h: 192 hr (Day 9); for concentration at 336 h: 336 hr (Day 15); for concentration at 360 h: 360 hr (Day 16); for concentration at 504 h: 504 hr (Day 22); for concentration at 528 h: 528 hr (Day 23); for concentration at 672 h: 672 hr (Day 29); for concentration at 696 h: 696 hr (Day 30); for concentration at 24 h: 24 hr (Day 2); for concentration at 168 h: 168 hr (Day 8)
Source text: PK samples, PD (fasting) samples, blood glucose, and blood triglyceride samples, were taken over a 6-week period.
Dose limiting toxicity (DLT) will be based on the toxicity assessments over the first 3-week period of the repeat dosing schedule. PK samples (single blood sample) were taken on the following basis: • Every 6 weeks during the repeat dosing phase • If dosing is interrupted or stopped, samples will be taken at intervals according to patient convenience • PK sampling for safety evaluation may take place at any time, as clinically indicated
Plasma samples were collected after the single 50 mg dose at the following timepoints: Pre-dose, and then 0.25, 0.5, 0.75, 1, 1.5, 2, 3, 4, 6, 24, 48, and 72 hours after administration and then once weekly at weeks 2, 3, 4, 5, and 6 (days 8, 15, 22, 29, and 36). For patients treated with the weekly repeat dose, plasma samples were collected at the following timepoints: Pre-dose and then 2, 3, 4 and 24 hours after administration for a total of 6 weeks. Thereafter a single sample was collected every 6 weeks for monitoring of exposure during long term treatment. Plasma samples were processed at site and stored at −80° C. prior to batch shipment to the analytical laboratory.

O=C(O)C(F)(F)C(F)(F)C(F)(F)C(F)(F)C(F)(F)C(F)(F)C(F)(F)F [CXR1002]
concentration at 172 h (950 mg, Patient 029, 950 mg): 556 µM
concentration at 192 h (950 mg, Patient 029, 950 mg): 606 µM
concentration at 336 h (950 mg, Patient 029, 950 mg): 439 µM
concentration at 338 h (950 mg, Patient 029, 950 mg): 704 µM
concentration at 339 h (950 mg, Patient 029, 950 mg): 777 µM
concentration at 340 h (950 mg, Patient 029, 950 mg): 674 µM
concentration at 360 h (950 mg, Patient 029, 950 mg): 896 µM
concentration at 504 h (950 mg, Patient 029, 950 mg): 400 µM
concentration at 506 h (950 mg, Patient 029, 950 mg): 897 µM
concentration at 507 h (950 mg, Patient 029, 950 mg): 741 µM
concentration at 508 h (950 mg, Patient 029, 950 mg): 701 µM
concentration at 528 h (950 mg, Patient 029, 950 mg): 781 µM
concentration at 672 h (950 mg, Patient 029, 950 mg): 492 µM
concentration at 674 h (950 mg, Patient 029, 950 mg): 841 µM
concentration at 675 h (950 mg, Patient 029, 950 mg): 972 µM
concentration at 676 h (950 mg, Patient 029, 950 mg): 812 µM
concentration at 696 h (950 mg, Patient 029, 950 mg): 949 µM
concentration at 840 h (950 mg, Patient 029, 950 mg, 840 hr (Day 36)): 777 µM
concentration at 842 h (950 mg, Patient 029, 950 mg, 842 hr): 793 µM
concentration at 864 h (950 mg, Patient 029, 950 mg, 864 hr (Day 37)): 1040 µM
concentration at 3 h (950 mg, Patient 030, 950 mg): 219 µM
concentration at 4 h (950 mg, Patient 030, 950 mg): 333 µM
concentration at 24 h (950 mg, Patient 030, 950 mg): 214 µM
concentration at 2 h (950 mg, Patient 031, 950 mg): 267 µM
concentration at 3 h (950 mg, Patient 031, 950 mg): 338 µM
concentration at 4 h (950 mg, Patient 031, 950 mg): 336 µM
concentration at 24 h (950 mg, Patient 031, 950 mg): 348 µM
concentration at 168 h (950 mg, Patient 031, 950 mg): 237 µM
concentration at 170 h (950 mg, Patient 031, 950 mg): 513 µM
concentration at 171 h (950 mg, Patient 031, 950 mg): 463 µM
concentration at 172 h (950 mg, Patient 031, 950 mg): 427 µM
concentration at 192 h (950 mg, Patient 031, 950 mg): 516 µM
concentration at 336 h (950 mg, Patient 031, 950 mg): 554 µM
concentration at 338 h (950 mg, Patient 031, 950 mg): 668 µM
concentration at 339 h (950 mg, Patient 031, 950 mg): 715 µM
concentration at 340 h (950 mg, Patient 031, 950 mg): 697 µM
concentration at 360 h (950 mg, Patient 031, 950 mg): 800 µM
concentration at 504 h (950 mg, Patient 031, 950 mg): 755 µM
concentration at 506 h (950 mg, Patient 031, 950 mg): 794 µM
concentration at 507 h (950 mg, Patient 031, 950 mg): 861 µM
concentration at 508 h (950 mg, Patient 031, 950 mg): 998 µM
concentration at 528 h (950 mg, Patient 031, 950 mg): 958 µM
concentration at 672 h (950 mg, Patient 031, 950 mg): 813 µM
concentration at 674 h (950 mg, Patient 031, 950 mg): 921 µM
concentration at 675 h (950 mg, Patient 031, 950 mg): 882 µM
concentration at 676 h (950 mg, Patient 031, 950 mg): 938 µM
concentration at 696 h (950 mg, Patient 031, 950 mg): 1030 µM
concentration at 2 h (950 mg, Patient 032, 950 mg): 292 µM
concentration at 3 h (950 mg, Patient 032, 950 mg): 191 µM
concentration at 4 h (950 mg, Patient 032, 950 mg): 231 µM
concentration at 24 h (950 mg, Patient 032, 950 mg): 161 µM
concentration at 168 h (950 mg, Patient 032, 950 mg): 192 µM
concentration at 170 h (950 mg, Patient 032, 950 mg): 439 µM
concentration at 171 h (950 mg, Patient 032, 950 mg): 478 µM
concentration at 172 h (950 mg, Patient 032, 950 mg): 517 µM
concentration at 192 h (950 mg, Patient 032, 950 mg): 495 µM
concentration at 2 h (1000 mg, Patient 040, 1000 mg): 188 µM
concentration at 3 h (1000 mg, Patient 040, 1000 mg): 168 µM
